Measured values published in US6737383B1, “Herbicidal oxadiazolidines” (priority 1999, dated 2004).

Experiments:
corn = assay: Test B pre/postemergence corn; format: in vivo, Zea mays; conditions: for Corn plant response rating: scale of 0 to 10 where 0 is no effect and 10 is complete control
Outline: (§1)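 Test chemicals in a non-phytotoxic solvent mixture with surfactant were sprayed preemergence onto planted seeds and postemergence onto plants 2 to 18 cm tall (1- to 4-leaf stage). After twelve to sixteen days in a greenhouse, injury was visually rated against untreated controls from 0 (no effect) to 10 (complete control).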

duck salad = assay: Test B flood test duck salad; format: in vivo, Heteranthera limosa
Outline: (§2)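 Read-out is a visual response score from 0 (no effect) to 10 (complete control), assigned by comparison with untreated controls. Treatment was applied at the 2-leaf stage, and plants stayed in the greenhouse for twelve to sixteen days before scoring.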

smallflower flatsedge = assay: Test B flood test smallflower flatsedge; format: in vivo, Cyperus difformis
Outline: as §2

purple nutsedge = assay: Test B pre/postemergence purple nutsedge; format: in vivo, Cyperus rotundus; conditions: for Nutsedge plant response rating: scale of 0 to 10 where 0 is no effect and 10 is complete control
Outline: as §1

surinam grass = assay: Test B pre/postemergence surinam grass; format: in vivo, Brachiaria decumbens; conditions: for B. signalgrass plant response rating: scale of 0 to 10 where 0 is no effect and 10 is complete control
Outline: as §1

crabgrass = assay: Test B pre/postemergence crabgrass; format: in vivo, Digitaria sanguinalis; conditions: for Crabgrass plant response rating: scale of 0 to 10 where 0 is no effect and 10 is complete control
Outline: as §1

morningglory = assay: Test B pre/postemergence morningglory; format: in vivo, Ipomoea hederacea; conditions: for Morningglory plant response rating: scale of 0 to 10 where 0 is no effect and 10 is complete control
Outline: as §1

sugar beet = assay: Test B pre/postemergence sugar beet; format: in vivo, Beta vulgaris; conditions: for Sugarbeets plant response rating: scale of 0 to 10 where 0 is no effect and 10 is complete control
Outline: as §1

wheat = assay: Test B pre/postemergence wheat; format: in vivo, Triticum aestivum; conditions: for Wheat plant response rating: scale of 0 to 10 where 0 is no effect and 10 is complete control
Outline: as §1

blackgrass = assay: Test B pre/postemergence blackgrass; format: in vivo, Alopecurus myosuroides; conditions: for Blackgrass plant response rating: scale of 0 to 10 where 0 is no effect and 10 is complete control
Outline: as §1

wild oat = assay: Test B pre/postemergence wild oat; format: in vivo, Avena fatua; conditions: for Wild oats plant response rating: scale of 0 to 10 where 0 is no effect and 10 is complete control
Outline: as §1

cocklebur = assay: Test B pre/postemergence cocklebur; format: in vivo, Xanthium strumarium; conditions: for Cocklebur plant response rating: scale of 0 to 10 where 0 is no effect and 10 is complete control
Outline: as §1

pigweed = assay: Test B pre/postemergence pigweed; format: in vivo, Amaranthus retroflexus; conditions: for Redroot pigweed plant response rating: scale of 0 to 10 where 0 is no effect and 10 is complete control
Outline: as §1

bedstraw = assay: Test B pre/postemergence bedstraw; format: in vivo, Galium aparine; conditions: Postemergence
Outline: as §1

rape = assay: Test B pre/postemergence rape; format: in vivo, Brassica napus; conditions: for Rape plant response rating: scale of 0 to 10 where 0 is no effect and 10 is complete control
Outline: as §1

velvetleaf = assay: Test B pre/postemergence velvetleaf; format: in vivo, Abutilon theophrasti; conditions: for Velvetleaf plant response rating: scale of 0 to 10 where 0 is no effect and 10 is complete control
Outline: as §1

[1] = Postemergence, Rate 125 g/ha, scale 0 to 10, 0 is no effect, 10 is complete control
[2] = Postemergence, Rate 250 g/ha, scale 0 to 10, 0 is no effect, 10 is complete control
[3] = Preemergence, Rate 62 g/ha, scale 0 to 10 (0 no effect, 10 complete control)
[4] = Rate 500 g/ha, Postemergence, scale 0 to 10, 0 no effect, 10 complete control
[5] = Rate 62 g/ha, flood test species, Pre-emergence, visual evaluation after twelve to sixteen days
[6] = Rate 125 g/ha, under heading Pre-emergence, flood test species, visual evaluation after twelve to sixteen days
[7] = Rate 250 g/ha, Pre-emergence, flood-test species, scale 0 to 10, 0 is no effect, 10 is complete control
[8] = Rate 500 g/ha, Pre-emergence, flood test species, scale 0 to 10 (0 no effect, 10 complete control)

CC(C)N(C(=O)n1oc(=O)n(N2CCOCC2)c1=O)c1ccc(F)cc1F [Compound 384]
7: B. signalgrass plant response rating (surinam grass; Preemergence, Rate 500 g/ha) | Plant response rating, B. signalgrass (surinam grass; [4]) | Plant response rating, Crabgrass (crabgrass; [1]) | Blackgrass plant response rating (blackgrass; Preemergence, Rate 500 g/ha)
1: Crabgrass plant response rating (crabgrass; Rate 62 g/ha, Postemergence) | Velvetleaf plant response rating (velvetleaf; Preemergence, Rate 250 g/ha)
9: Crabgrass plant response rating (crabgrass; Preemergence, Rate 250 g/ha) | Crabgrass plant response rating (crabgrass; Preemergence, Rate 500 g/ha) | Plant response rating, Blackgrass (blackgrass; [2])
6: Plant response rating, B. signalgrass (surinam grass; [2]) | Plant response rating, Crabgrass (crabgrass; [3]) | Crabgrass plant response rating (0 to 10 scale) (crabgrass; Preemergence, Rate 125 g/ha) | Wild oats plant response rating (wild oat; Preemergence, Rate 250 g/ha) | Wild oats plant response rating (wild oat; Preemergence, Rate 500 g/ha)
3: Plant response rating, B. signalgrass (surinam grass; [1]) | B. signalgrass plant response rating (surinam grass; Preemergence, Rate 250 g/ha) | Wheat plant response rating (wheat; Preemergence, Rate 500 g/ha) | Plant response rating, Wheat (wheat; [4]) | Blackgrass plant response rating (blackgrass; Preemergence, Rate 250 g/ha) | Blackgrass plant response rating (blackgrass; Rate 62 g/ha, Postemergence) | Velvetleaf plant response rating (velvetleaf; Preemergence, Rate 500 g/ha)
0: Plant response rating, Corn (corn; [1]) | Plant response rating, Corn (corn; [2]) | Plant response rating, Corn (corn; [3]) | Corn plant response rating (corn; Rate 62 g/ha, Postemergence) | Plant response rating, Corn (corn; [4]) | Plant response rating, Ducksalad (0 to 10 scale, 0 is no effect, 10 is complete control) (duck salad; [5]) | Ducksalad plant response rating (0 to 10 scale, 0 is no effect, 10 is complete control) (duck salad; [6]) | Ducksalad plant response rating (duck salad; [7]) | Ducksalad plant response rating (duck salad; [8]) | Plant response rating, S. Flatsedge (0 to 10 scale, 0 is no effect, 10 is complete control) (smallflower flatsedge; [5]) | S. Flatsedge plant response rating (0 to 10 scale, 0 is no effect, 10 is complete control) (smallflower flatsedge; [6]) | S. Flatsedge plant response rating (smallflower flatsedge; [7]) | S. Flatsedge plant response rating (smallflower flatsedge; [8]) | Plant response rating, Nutsedge (purple nutsedge; [1]) | Plant response rating, Nutsedge (purple nutsedge; [2]) | Plant response rating, Nutsedge (purple nutsedge; [3]) | Nutsedge plant response rating (0 to 10 scale) (purple nutsedge; Preemergence, Rate 125 g/ha) | Nutsedge plant response rating (purple nutsedge; Preemergence, Rate 250 g/ha) | Nutsedge plant response rating (purple nutsedge; Preemergence, Rate 500 g/ha) | Nutsedge plant response rating (purple nutsedge; Rate 62 g/ha, Postemergence) | Plant response rating, Nutsedge (purple nutsedge; [4]) | Plant response rating, B. signalgrass (surinam grass; [3]) | B. signalgrass plant response rating (0 to 10 scale, 0 is no effect, 10 is complete control) (surinam grass; Preemergence, Rate 125 g/ha) | B. signalgrass plant response rating (surinam grass; Rate 62 g/ha, Postemergence) | Plant response rating, Morningglory (morningglory; [1]) | Plant response rating, Morningglory (morningglory; [2]) | Plant response rating, Morningglory (morningglory; [3]) | Morningglory plant response rating (0 to 10 scale) (morningglory; Preemergence, Rate 125 g/ha) | Morningglory plant response rating (morningglory; Preemergence, Rate 250 g/ha) | Morningglory plant response rating (morningglory; Rate 62 g/ha, Postemergence) | Plant response rating, Morningglory (morningglory; [4]) | Plant response rating, Sugarbeets (sugar beet; [1]) | Plant response rating, Sugarbeets (sugar beet; [2]) | Plant response rating, Sugarbeets (sugar beet; [3]) | Sugarbeets plant response rating (0 to 10 scale) (sugar beet; Preemergence, Rate 125 g/ha) | Sugarbeets plant response rating (sugar beet; Preemergence, Rate 250 g/ha) | Sugarbeets plant response rating (sugar beet; Rate 62 g/ha, Postemergence) | Plant response rating, Sugarbeets (sugar beet; [4]) | Plant response rating, Wheat (wheat; [1]) | Plant response rating, Wheat (wheat; [3]) | Wheat plant response rating (0 to 10 scale) (wheat; Preemergence, Rate 125 g/ha) | Wheat plant response rating (wheat; Rate 62 g/ha, Postemergence) | Plant response rating, Blackgrass (blackgrass; [3]) | Blackgrass plant response rating (0 to 10 scale) (blackgrass; Preemergence, Rate 125 g/ha) | Plant response rating, Wild oats (wild oat; [1]) | Plant response rating, Wild oats (wild oat; [2]) | Plant response rating, Wild oats (wild oat; [3]) | Wild oats plant response rating (0 to 10 scale) (wild oat; Preemergence, Rate 125 g/ha) | Wild oats plant response rating (wild oat; Rate 62 g/ha, Postemergence) | Plant response rating, Cocklebur (cocklebur; [1]) | Plant response rating, Cocklebur (cocklebur; [2]) | Plant response rating, Cocklebur (cocklebur; [3]) | Cocklebur plant response rating (0 to 10 scale) (cocklebur; Preemergence, Rate 125 g/ha) | Cocklebur plant response rating (cocklebur; Preemergence, Rate 250 g/ha) | Cocklebur plant response rating (cocklebur; Preemergence, Rate 500 g/ha) | Cocklebur plant response rating (cocklebur; Rate 62 g/ha, Postemergence) | Plant response rating, Cocklebur (cocklebur; [4]) | Plant response rating, Redroot pigweed (pigweed; [1]) | Plant response rating, Redroot pigweed (pigweed; [2]) | Plant response rating, Redroot pigweed (pigweed; [3]) | Redroot pigweed plant response rating (0 to 10 scale) (pigweed; Preemergence, Rate 125 g/ha) | Redroot pigweed plant response rating (pigweed; Preemergence, Rate 250 g/ha) | Redroot pigweed plant response rating (pigweed; Preemergence, Rate 500 g/ha) | Redroot pigweed plant response rating (pigweed; Rate 62 g/ha, Postemergence) | Plant response rating, Redroot pigweed (pigweed; [4]) | Plant response rating, Bedstraw (bedstraw; Rate 125 g/ha, scale 0 to 10, 0 is no effect, 10 is complete control) | Plant response rating, Bedstraw (bedstraw; Rate 250 g/ha, scale 0 to 10, 0 is no effect, 10 is complete control) | Bedstraw plant response rating (bedstraw; Rate 62 g/ha, scale of 0 to 10 where 0 is no effect and 10 is complete control) | Plant response rating, Bedstraw (bedstraw; Rate 500 g/ha, scale 0 to 10, 0 no effect, 10 complete control) | Plant response rating, Rape (rape; [1]) | Plant response rating, Rape (rape; [2]) | Plant response rating, Rape (rape; [3]) | Rape plant response rating (0 to 10 scale) (rape; Preemergence, Rate 125 g/ha) | Rape plant response rating (rape; Preemergence, Rate 250 g/ha) | Rape plant response rating (rape; Preemergence, Rate 500 g/ha) | Rape plant response rating (rape; Rate 62 g/ha, Postemergence) | Plant response rating, Velvetleaf (velvetleaf; [1]) | Plant response rating, Velvetleaf (velvetleaf; [2]) | Plant response rating, Velvetleaf (velvetleaf; [3]) | Velvetleaf plant response rating (0 to 10 scale) (velvetleaf; Preemergence, Rate 125 g/ha) | Velvetleaf plant response rating (velvetleaf; Rate 62 g/ha, Postemergence) | Plant response rating, Velvetleaf (velvetleaf; [4])
4: Plant response rating, Blackgrass (blackgrass; [1]) | Plant response rating, Wild oats (wild oat; [4])
8: Plant response rating, Crabgrass (crabgrass; [2]) | Plant response rating, Crabgrass (crabgrass; [4])
2: Morningglory plant response rating (morningglory; Preemergence, Rate 500 g/ha) | Sugarbeets plant response rating (sugar beet; Preemergence, Rate 500 g/ha) | Plant response rating, Wheat (wheat; [2]) | Wheat plant response rating (wheat; Preemergence, Rate 250 g/ha)
5: Corn plant response rating (corn; Preemergence, Rate 500 g/ha)
